Source: patent publication US20210338645A1, “SOLID DISPERSION OF RIFAMYCIN-NITROIMIDAZOLE COUPLING MOLECULE AND APPLICATION THEREOF” (TenNor Therapeutics Limited, priority 2018, published 2021)
Like-named read-outs stand apart in the source and are kept apart here.

What was measured:
Assay type in all cases: physicochemical
[1] = Approximate solubility of the coupling molecule in spray drying solvents; details: organic solvent or mixture, thermodynamic from solid
Method: In this embodiment, the solvent is firstly screened and determined: the solvent comprises one or a combination of more of methanol, ethanol, acetone, ethyl acetate, tetrahydrofuran and dichloromethane. About 10 mg of rifamycin-nitroimidazole coupling molecules are weighed into a 1.5 mL liquid phase bottle, and appropriate volumes of different solvents are added respectively to observe and judge whether the coupling molecule is completely dissolved and judge approximate solubility of the coupling molecule.

[2] = Two-hour solubility of API in functional excipient solution; details: for Two-hour Dissolution Rate: 37° C.; for increase of two-hour dissolution rate compared to API powder control: pH 4.5 system
Method: In order to further increase the dissolution performance of the rifamycin-nitroimidazole coupling molecule, sodium dodecyl sulfate, meglumine, VE-TPGS or Tween 80 is respectively added in the simulated gastric fluid system of pH=1.2 or the acetate buffer system of pH=4.5, to prepare the dissolution medium containing 3 mg/mL of functional excipient. About 100 mg (or 20 mg) of rifamycin-nitroimidazole coupling molecules are weighed and put into a 1.5 ml high-performance liquid phase bottle, 1 ml of simulated gastric fluid of pH 1.2 (or acetate buffer of pH 4.5) containing functional excipient is added, and the rifamycin-nitroimidazole coupling molecules are put into a constant temperature mixing instrument at 37° C., the rotation speed is 700 rpm, and after 120 minutes, 500 μl of liquid is taken into a centrifuge tube and centrifuged at 14,000 rpm for 5 min. The supernatant liquid is centrifuged again in the same condition, and the supernatant liquid after twice centrifugation is taken into the liquid phase bottle, and diluted to a proper amount of times with acetonitrile as the solution to be tested, a high performance liquid chromatograph is injected to record a chromatogram, and the concentration is calculated by a peak area using an external standard method.

[3] = Dissolution of binary solid dispersion film in acetate buffer of pH 4.5; details: for Drug Concentration: acetate buffer pH 4.5, 25° C.
Method: (§1) Preparation of binary solid dispersion (ASD for short): About 25 mg of rifaomycin-nitroimidazole coupling molecules and about 25 mg of carrier excipient are weighed, and placed into the same 40 mL glass bottle. The open 40 mL glass bottle is covered with perforated aluminum-foil paper to prevent cross contamination and placed into a 35° C. vacuum drying oven for rapid volatilization. After 40 hours of vacuum and full drying, the binary dispersion forms a purple film on the bottom of the bottle to obtain a binary solid dispersion film.
(§2) The prepared binary solid dispersion film is subjected to dissolution experiments: In the 40 mL glass bottle containing solid dispersion films, 0.5 mL of simulated gastric fluid of pH 1.2 and […] of acetate buffer of pH 4.5 are respectively taken as dissolution media (25° C.) (the target concentration is 50 mg ml), to seal the glass bottle and complete the vortex processing for 5 seconds; 100 μL of liquid is taken as an initial sampling point (0 minute) and then the glass bottle is shaken by a rocking bed; 100 μL of solution is taken into centrifugal tubes respectively after 10 minutes, 30 minutes, and 60 minutes, to perform the centrifugation at a rotational speed of 14000 rpm for 5 minutes; and the supernatant is taken into a small liquid phase bottle and is diluted with the acetonitrile to a suitable multiple, and high-performance liquid chromatograph is taken into the glass bottle, to record a chromatogram map and calculate the concentration according to the peak area by an external standard method.

[4] = Dissolution of spray-dried solid dispersion powder in acetate buffer of pH 4.5 (target 4 mg/mL); details: acetate buffer pH 4.5, 37° C.
Method: About 344 mg of prepared solid dispersions are taken and poured into a 40 mL glass bottle; 20 mL of acetate buffer of pH 4.5 (preheated to 37° C.) is used as the dissolution medium (the target concentration of the rifaomycin-nitroimidazole coupling molecule is 4 mg/mL); the glass bottle is sealed; and the above materials are whirled for 5 seconds and placed on a heated magnetic stirrer at 37° C. after a stir bar is inserted. The rotational speed is 300 rpm. After 10 min, 20 min, 40 min, 60 min, 90 min, 120 min and 180 min, 500 μL of the liquid is taken into the centrifuge tube and centrifuged at 14000 rpm for 3 min. The supernatant liquid is taken into the liquid phase bottle and diluted to 10 times with acetonitrile as the solution to be tested, the high performance liquid chromatography is injected and the chromatogram is recorded, and the concentration is calculated by the peak area using the external standard method.

[5] = Dissolution of binary solid dispersion film in simulated gastric fluid of pH 1.2; details: simulated gastric fluid pH 1.2, 25° C.
Method: as §1, §2

[6] = Two-hour solubility of API in functional excipient solution
[7] = acetate buffer pH 4.5, Meglumine
[8] = acetate buffer pH 4.5, no functional excipient
[9] = simulated gastric fluid pH 1.2, SLS
[10] = simulated gastric fluid pH 1.2, Tween80
[11] = simulated gastric fluid pH 1.2, VE-TPGS
[12] = simulated gastric fluid pH 1.2, no functional excipient

## CO[C@H]1/C=C/O[C@@]2(C)Oc3c(C)c(O)c4c(c3C2=O)C2=NC3(CCN(CCn5c([N+](=O)[O-])cnc5C)CC3)NC2=C(NC(=O)/C(C)=C\C=C\[C@H](C)[C@H](O)[C@@H](C)[C@@H](O)[C@@H](C)[C@H](OC(C)=O)[C@@H]1C)C4=O [API]
[1]; acetone, read-out: Approximate Solubility
  solubility: > 300 mg/mL
[1]; dichloromethane, read-out: Approximate Solubility
  solubility: > 300 mg/mL
[1]; ethanol, read-out: Approximate Solubility
  solubility: 167 to 200 mg/mL
[1]; ethyl acetate, read-out: Approximate Solubility
  solubility: 167 to 200 mg/mL
[1]; methanol, read-out: Approximate Solubility
  solubility: > 300 mg/mL
[1]; various common spray drying solvents, read-out: Solubility
  solubility: > 100 mg/mL
[1]; tetrahydrofuran, read-out: Approximate Solubility
  solubility: > 200 mg/mL
[2]; 20 mg API + 1 mL acetate buffer pH 4.5, Meglumine 3 mg/mL
  Two-hour Dissolution Rate: 0.10 mg/mL
[2]; 20 mg API + 1 mL acetate buffer pH 4.5, SLS 3 mg/mL
  Two-hour Dissolution Rate: 0.06 mg/mL
[2]; 20 mg API + 1 mL acetate buffer pH 4.5, Tween80 3 mg/mL
  Two-hour Dissolution Rate: 0.61 mg/mL
[2]; 20 mg API + 1 mL acetate buffer pH 4.5, VE-TPGS 3 mg/mL
  Two-hour Dissolution Rate: 0.84 mg/mL
[2]; 20 mg API + 1 mL acetate buffer pH 4.5, no functional excipient
  Two-hour Dissolution Rate: 0.15 mg/mL
[2]; 100 mg API + 1 mL simulated gastric fluid pH 1.2, SLS 3 mg/mL
  Two-hour Dissolution Rate: 6.7 mg/mL
[2]; 100 mg API + 1 mL simulated gastric fluid pH 1.2, Tween80 3 mg/mL
  Two-hour Dissolution Rate: 11.7 mg/mL
[2]; 100 mg API + 1 mL simulated gastric fluid pH 1.2, VE-TPGS 3 mg/mL
  Two-hour Dissolution Rate: 11.5 mg/mL
[2]; [7]
  Final pH: 4.91
  Physical Appearance: Suspension
[2]; acetate buffer pH 4.5, SLS
  Final pH: 4.65
  Physical Appearance: Suspension
[2]; acetate buffer pH 4.5, Tween80
  Final pH: 4.46
  Physical Appearance: Suspension
[2]; acetate buffer pH 4.5, VE-TPGS
  Final pH: 4.45
  Physical Appearance: Suspension
[2]; [8]
  Final pH: 4.45
  Physical Appearance: Suspension
[2]; Tween-80
  increase of two-hour dissolution rate compared to API powder control: 4 times
[2]; VE-TPGS
  increase of two-hour dissolution rate compared to API powder control: 6 times
[2]; [9]
  Final pH: 2.72
  Physical Appearance: Suspension
[2]; [10]
  Final pH: 2.60
  Physical Appearance: Suspension
[2]; [11]
  Final pH: 2.60
  Physical Appearance: Suspension
[2]; [12]
  Physical Appearance: Suspension
[3]; acetate buffer pH 4.5
  Phenomenon: Clear solution, incomplete dissolved film
[3]; 0 min
  Drug Concentration: 10 µg/mL
[3]; 10 min
  Drug Concentration: 290 µg/mL
[3]; 30 min
  Drug Concentration: 340 µg/mL
[3]; 60 min
  Drug Concentration: 370 µg/mL
[3]; dissolution medium, acetate buffer pH 4.5
  pH: 4.5
[4]
  Phenomenon: Inhomogeneous
[4]; 10 Min
  Drug Concentration: 210 µg/mL
[4]; 20 Min
  Drug Concentration: 170 µg/mL
[4]; 40 Min
  Drug Concentration: 190 µg/mL
[4]; 60 Min
  Drug Concentration: 180 µg/mL
[4]; 90 Min
  Drug Concentration: 180 µg/mL
[4]; 120 Min
  Drug Concentration: 180 µg/mL
[4]; 180 Min
  Drug Concentration: 160 µg/mL
[4]; dissolution medium
  pH: 4.47
[5]; dissolution medium
  pH: 2.0
[5]
  Phenomenon: Clear
[5]; 0 min
  Drug Concentration: 10000 µg/mL
[5]; 10 min
  Drug Concentration: 46400 µg/mL
[5]; 30 min
  Drug Concentration: 54700 µg/mL
[5]; 60 min
  Drug Concentration: 53500 µg/mL
[6]; 100 mg API + 1 mL simulated gastric fluid pH 1.2, no functional excipient, 37° C.
  Two-hour Dissolution Rate: 9.8 mg/mL
[6]; [12]
  Final pH: 2.5
